Measurements reported in US11981731B2, “Targeting cytotoxic cells with chimeric receptors for adoptive immunotherapy” (Novartis AG, priority 2014, dated 2024).
Entries after “also recorded” stand apart in the source; their conditions may differ. Where two headings read alike, the source gives them in different places.

What was measured:
[1] = tested on: CAR-positive CD3-positive T cells co-cultured with Nalm-6 cells; test: CART proliferation in co-culture with Nalm-6 cells with RAD001; assay type: cell-based; details: low doses of RAD001, 4 days of co-culture with Nalm-6
Method: CARTs were co-cultured with Nalm-6 cells in the presence of different concentrations of RAD001. The number of CAR-positive CD3-positive T cells (black) and total T cells (gray) was assessed after 4 days of co-culture.

NALM6-luc tumors = test: NALM6-luc tumor growth under daily oral RAD001; assay type: in vivo, NSG mice; details: daily oral dosing of RAD001 alone
Method: NALM6-luc cells were grown and expanded in vitro in RPMI supplemented with 10% heat inactivated fetal bovine serum. The cells were then transferred to a 15 ml conical tube and washed twice with cold sterile PBS. NALM6-luc cells were then counted and resuspended at a concentration of 10×10^6 cells per milliliter of PBS. The cells were placed on ice and immediately (within one hour) implanted in the mice. NALM6-luc cells were injected intravenously via the tail vein in a 100 μl volume, for a total of 1×10^6 cells per mouse.
(§1) A concentrated micro-emulsion of 50 mg equal to 1 mg RAD001 was formulated and then resuspended in D5W (dextrose 5% in water) at the time of dosing. Mice were orally dosed daily (via oral gavage) with 200 μl of the desired doses of RAD001.

huCART19 cells = test: CART proliferation in 4 day co-culture with Nalm-6 in presence of RAD001; assay type: cell-based, human
Method: To evaluate the functionality of CARTs, the T cells are thawed and counted, and viability is assessed by Cellometer. The number of CAR-positive cells in each culture is normalized using non-transduced T cells (UTD). The impact of RAD001 on CARTs was tested in titrations with RAD001, starting at 50 nM. The target cell line used in all co-culture experiments is Nalm-6, a human pre-B cell acute lymphoblastic leukemia (ALL) cell line expressing CD19 and transduced to express luciferase.
For measuring the proliferation of CARTs, T cells are cultured with target cells at a ratio of 1:1. The assay is run for 4 days, when cells are stained for CD3, CD4, CD8 and CAR expression. The number of T cells is assessed by flow cytometry using counting beads as reference.

huCAR19 CAR T cells = test: CAR T cell expansion in vivo with RAD001 (FACS); design: species or system NSG mice; details: lowest doses of RAD001, daily oral
Method: Mice were administered 5×10^6 CAR T cells 7 days after tumor implantation. Cells were partially thawed in a 37 degree Celsius water bath and then completely thawed by the addition of 1 ml of cold sterile PBS to the tube containing the cells. The thawed cells were transferred to a 15 ml falcon tube and adjusted to a final volume of 10 mls with PBS. The cells were washed twice at 1000 rpm for 10 minutes each time and then counted on a hemocytometer. T cells were then resuspended at a concentration of 50×10^6 CAR T cells per ml of cold PBS and kept on ice until the mice were dosed. The mice were injected intravenously via the tail vein with 100 μl of the CAR T cells for a dose of 5×10^6 CAR T cells per mouse. Eight mice per group were treated either with 100 μl of PBS alone (PBS), or humanized CD19 CAR T cells.
as §1
Based on these doses, huCAR19 CAR T cells were dosed with and without RAD001 to determine the proliferative ability of these cells. The highest dose used was 3 mg/kg based on the levels of RAD001 in the blood 24 hours after dosing. […] Mice were monitored via FACS for T cell expansion.

[2] = RAD001 PK analysis in NSG mice with NALM6-luc tumors; assay type: in vivo; details: for concentration at 24 h: NSG, mouse
Method: as §1
Mice were dosed daily with RAD001 starting 7 days post tumor implantation. Dosing groups were as follows: 0.3 mg/kg, 1 mg/kg, 3 mg/kg, and 10 mg/kg. Mice were bled on days 0 and 14 following the first and last dose of RAD001, at the following time points for PK analysis: 15 minutes, 30 minutes, 1 hour, 2 hours, 4 hours, 8 hours, 12 hours, and 24 hours.

[3] = tested on: CD4+ and CD8+ CAR T cells; test: In vivo proliferation of humanized CD19 CART cells with and without RAD001; details: 0.003 mg/kg daily with huCTL019
Method: FIG. 49A and FIG. 49B show in vivo proliferation of humanized CD19 CART cells with and without RAD001 dosing. […] Circles denote PBS; squares denote huCTL019; triangles denote huCTL019 with 3 mg/kg RAD001; inverted triangles denote huCTL019 with 0.3 mg/kg RAD001; diamonds denote huCTL019 with 0.03 mg/kg RAD001; and circles denote huCTL019 with 0.003 mg/kg RAD001.

concentration at 24 h ([2]; blood, oral, 0.3 mg/kg, 24 hours after the final dose, read-out: concentration of RAD001): > 10 nM | concentration at 24 h ([2]; whole blood, 24 hours after dosing, 0.3 mg/kg oral, day 0 and day 14, read-out: RAD001 concentrations in the blood): > 10 nM | stability in the blood of tumor bearing mice ([2]; daily oral dosing): fairly stable
Compound: CO[C@H]1C[C@@H]2CC[C@@H](C)[C@@](O)(O2)C(=O)C(=O)N2CCCC[C@H]2C(=O)O[C@H]([C@H](C)C[C@@H]2CC[C@@H](OCCO)[C@H](OC)C2)CC(=O)[C@H](C)/C=C(\C)[C@@H](O)[C@@H](OC)C(=O)[C@H](C)C[C@H](C)/C=C/C=C/C=C/1C [RAD001, everolimus]
proliferation of CAR-expressing, transduced T cells [1]: enhanced | impact on the growth of NALM6-luc tumors (NALM6-luc tumors): did not have an impact | proliferation of huCART19 cells (huCART19 cells; 0.0032 and 0.016 nM RAD001): higher than observed without the addition of RAD001 | expansion of huCART19 cells (huCART19 cells; less than 0.016 nM of RAD001): expanded | proliferation of the CAR T cells in vivo (huCAR19 CAR T cells): enhanced proliferation; also recorded: more evident and prolonged with the CD4^+ CAR T cells | in vivo CAR T cell proliferation [3]: enhancement in CAR T cell proliferation
